# Measurements from the supplement of paper PMC5412046.
# Structures can show the parent of a compound that is named as a salt.
# Tested on: SB.msgc-1
# Assay: AC50 for growth inhibition (viability) (log10 M); higher = less potent
# Details: SB.msgc-1 (sporadic gastric cancer)
# In short: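 After 48 h with compound, plates received CellTiter-Glo for 30 min at room temperature and were read for luminescence on a ViewLux. The cells were patient-derived gastric cancer lines of hereditary or sporadic origin, plated at 500 cells in 5 μL medium per 1536 well and pinned with 23 nL compound in DMSO, at 11 threefold dilutions from a final 46 μM. For the log half-maximal activity concentration, DMSO-normalised viability was fitted with four parameters and only high-quality curve classes were kept.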
row,Structure (SMILES),AC50 for growth inhibition (log10 M)
1,Cc1ccc([S+](=O)([O-])Nc2nc3ccccc3nc2Nc2ccc3nsnc3c2)cc1 [XL-147],-6.19
2,O=C(O)c1ccc2c(c1)nc(Nc1cccc(Cl)c1)c1ccncc12 [Silmitasertib],-4.93
3,O=C(O)Cn1nnc(-c2cc(N3CCC(Oc4cc(F)ccc4Br)CC3)no2)n1 [MK-8245],-5.48
4,O=NN(CCCl)C(=O)NC1CCCCC1 [Lomustine],-4.83
5,O=C(O)c1ccc(-c2c[nH]c3ncc(-c4ccccc4)cc23)cc1C1CCCC1,-6.28
6,COC(=O)CCC1=C(C)C2=CC3=NC(=CC4=C(C)C(=C([NH]4)C=C\5N=C(C=C1[NH]2)\C(=C5C)CCC(O)=O)C=C)\C6=C\C=C(/[C@@H](C(=O)OC)[C@@]36C)C(=O)OC [Verteporfin],-7.03
7,CCn1c(=O)c2c(nc(/C=C/c3ccc(OC)c(OC)c3)n2C)n(CC)c1=O [Istradefylline],-4.73
8,C[S+](=O)([O-])c1ccc(C(=O)Nc2ccc(Cl)c(-c3ccccn3)c2)c(Cl)c1 [Vismodegib],-4.78
9,Cn1ccc2cc3c(cc21)CCN3C(=O)Nc1cccnc1,-5.03
10,COc1ccc(N(C(=O)Oc2c(C)cccc2C)c2ccnc(Nc3ccc(N4CCN(C)CC4)cc3)n2)c(OC)c1,-5.43
11,Cc1cccc(C)c1OCC(=O)N[C@@H](Cc1ccccc1)[C@@H](O)C[C@H](Cc1ccccc1)NC(=O)[C@H](C(C)C)N1CCCNC1=O [Lopinavir],-4.73
12,Nc1nc(Nc2ccc([S+](N)(=O)[O-])cc2)nn1C(=O)c1c(F)cccc1F,-5.33
13,C[S+]([O-])c1ccc(-c2nc(-c3ccc(F)cc3)c(-c3ccncc3)[nH]2)cc1 (configuration not stated),-4.62
14,O=C(NOCC(O)CO)c1cc(Br)c(F)c(F)c1Nc1ccc(I)cc1F (configuration not stated),-5.88
15,CCC(C)(C)C(=O)O[C@H]1C[C@@H](C)\C=C2\C=C/[C@H](C)[C@H](CC[C@@H]3C[C@@H](O)CC(=O)O3)[C@@H]12 [Simvastatin],-4.78
16,CC(C)OC1=CC=C2C(=C1)O\C=C(/C2=O)C3=CC=CC=C3 [Ipriflavone],-4.78
17,CN(C)[C@H]\1[C@@H]2C[C@H]3C(=C(O)\[C@]2(O)C(=O)\C(=C1O)C(N)=O)/C(=O)C4=C(O)C=CC=C4[C@@]3(C)O [Tetracycline hydrochloride],-5.18
18,C[C@@H]1O[C@@H](O[C@H]\2CC[C@]\3(C)[C@@H]4CC[C@]5(C)[C@@H](CC[C@@]5(O)[C@H]4CCC3=C2)C/6=C/OC(=O)/C=C6)[C@H](O)[C@H](O)[C@@H]1O [Proscillaridin],-7.68
19,Cc1ccc(C(=O)c2cc(O)c(O)c([N+](=O)[O-])c2)cc1 [Tolcapone],-4.68
20,O=C(O)c1ccc(O)c2ncc(N3CCOCC3)cc12,-4.78
21,Nc1ccccc1NC(=O)c1ccc(CNc2nccc(-c3cccnc3)n2)cc1 [Mocetinostat],-5.93
22,O=C(C1CC1)N1CC[C@@H](Cn2c(-c3ccc(-c4ccc5occc5c4)cc3)nc3cnccc32)C1,-4.73
23,C[C@@H](N)c1ccc(C(=O)Nc2ccnc3[nH]ccc23)cc1,-4.78

row,Structure (SMILES),AC50 for growth inhibition (log10 M)
1,O=C1NCCc2[nH]c(-c3ccncc3)cc21,-5.63
2,CN1C(=O)C(=C\C2=C1N=C(NC3=CC=CC(=C3)C(O)=O)N=C2)/C4=C(Cl)C=CC=C4Cl,-5.78
3,Cc1onc(-c2ccccc2Cl)c1C(=O)N[C@@H]1C(=O)N2[C@@H]1SC(C)(C)[C@@H]2C(=O)[O-] [Sodium cloxacillin],-5.48
4,C/C=C(/C)C(=O)O[C@H]1C(C)=C[C@]23C(=O)[C@@H](C=C(CO)[C@@H](O)[C@]12O)[C@H]1[C@@H](C[C@H]3C)C1(C)C [Ingenol mebutate],-7.18
5,O=C(O)[C@@H](c1ccc(OCc2ccc3ccccc3n2)cc1)C1CCCC1 [Veliflapon],-5.18
6,CCC[S+]([O-])c1ccc2[nH]c(NC(=O)OC)nc2c1 (configuration not stated) [Albendazole Oxide],-4.68
7,CC(C)CN(C[C@@H](O)[C@H](Cc1ccccc1)NC(=O)O[C@H]1CO[C@H]2OCC[C@H]21)S(=O)(=O)c1ccc(N)cc1 [Darunavir],-5.63
8,Cc1cc(NC(=O)Nc2ccc(N(C)C)cc2)c2cc(F)cc(F)c2n1,-5.08
9,O=C(O)/C=C/c1ccc(O)c(O)c1 [Caffeic acid],-4.88
10,c1ccc2c(Oc3nc(Nc4ccc(N5CCOCC5)cc4)c4ncn(C5CCCCC5)c4n3)cccc2c1 [purmorphamine],-4.98
11,c1cc2c(cc1[C@H]1OC[C@H]3[C@@H]1CO[C@@H]3c1ccc3c(c1)OCO3)OCO2 [Sesamin],-5.33
12,COc1ccc2c(c1)CN(C)CC2c1ccc(Cl)c(Cl)c1 (configuration not stated) [Diclofensine],-4.73
13,COc1cc(Nc2ncc(F)c(Nc3ccc4c(n3)NC(=O)C(C)(C)O4)n2)cc(OC)c1OC [R406],-4.63
14,O=C(CS(=O)Cc1ccco1)NC/C=C\COc1cc(CN2CCCCC2)ccn1 (configuration not stated) [Lafutidine],-5.08
15,COC(=O)Nc1nc2cc(C(=O)c3ccccc3)ccc2[nH]1 [Mebendazole],-5.48
16,Cc1csc(-c2nnc(Nc3ccc(Oc4ncccc4-c4ccnc(N)n4)cc3)c3ccccc23)c1 [AMG-900],-4.68
17,CC(=O)N1CCN(c2ccc(OC[C@H]3CO[C@](Cn4ccnc4)(c4ccc(Cl)cc4Cl)O3)cc2)CC1 [Ketoconazole],-4.83
18,C[C@@H]1C/C=C/C=C/C=C/C=C/[C@@H](O[C@@H]2O[C@H](C)[C@@H](O)[C@H](N)[C@@H]2O)C[C@@H]2O[C@](O)(C[C@@H](O)C[C@@H]3O[C@H]3/C=C/C(=O)O1)C[C@H](O)[C@H]2C(=O)O [Natamycin],-5.23
19,NC(=O)c1noc([C@H](CCCC2CCCCC2)CC(=O)NO)n1,-4.93
20,OCCC#Cc1nc(-c2ccc(F)cc2)c(-c2ccncc2)n1CCCc1ccccc1,-4.68
21,CCCCCCCCCCCCCCCC(=O)O[C@@H]1[C@@H](O)[C@@H](O)[C@@H]([C@H](NC(=O)[C@@H]2C[C@@H](CCC)CN2C)[C@H](C)Cl)O[C@@H]1SC.Cl [Clindamycin palmitate],-4.78
22,COC[C@H]1OC(=O)C2=COC3=C2[C@@]1(C)\C4=C(C5CCC(=O)[C@@]5(C)C[C@H]4OC(C)=O)/C3=O (some centres not stated) [Wortmannin],-4.83
23,COc1ccc(C(=O)N2CCCC2=O)cc1 [Aniracetam],-4.68

row,Structure (SMILES),AC50 for growth inhibition (log10 M)
1,Cc1c(CN2CCN([S+](C)(=O)[O-])CC2)sc2c(N3CCOCC3)nc(-c3cnc(N)nc3)nc12 [GNE-477],-7.68
2,CCNC(=O)Nc1ccc(Oc2ncnc(N)c2/C=N/OC)cc1Cl,-4.88
3,COc1ccc(CCC(=O)Nc2nc3ccc(Cl)cc3s2)cc1OC,-4.63
4,Cc1cc2c(C(C)C)c(O)c(O)c(C=O)c2c(O)c1-c1c(C)cc2c(C(C)C)c(O)c(O)c(C=O)c2c1O [(-)-Gossypol],-4.83
5,Cc1ncc(-c2ccnc(Nc3ccc([S+](C)(=O)[O-])cc3)n2)n1C(C)C [AZD-5438],-5.78
6,O=C(O)C(=O)c1cn(Cc2ccccc2)c2ccc(-c3ccc(OC(F)(F)F)cc3)cc12 [Tiplasinin],-5.13
7,Cc1cccc(-c2nn(C(=S)Nc3ccccc3)cc2-c2ccnc3ccccc23)n1 [A 83-01],-4.73
8,COc1cc2ncnc(Nc3cc(Br)c(O)c(Br)c3)c2cc1OC [WHI-P97],-7.78
9,O=C(C[C@@H]1C/C=C\CCC(=O)O[C@H](c2ccccc2)CNC1=O)NCc1ccc(Cl)cc1 [Robotnikinin],-5.43
10,c1ccc(CNc2nc(N3CCOc4ccccc43)nc3c2CCCC3)cc1,-4.68
11,CC1COC2(CCN(CC2)C/3=N/C(=O)C4=CC(=CC(=C4S3)[N+]([O-])=O)C(F)(F)F)O1 (configuration not stated),-4.78
12,NC(=O)c1nnn(Cc2cc(Cl)c(C(=O)c3ccc(Cl)cc3)c(Cl)c2)c1N [Carboxyamidotriazole],-5.03
13,CC(C)(C)[C@]1(O)C[C@@H]2OC(=O)C[C@@]23C(=O)O[C@@H]2OC(=O)[C@H](O)C213 (some centres not stated) [Bilobalide],-4.93
14,CC(=O)NC(C)c1ccc(Oc2ccc(OC(C)C)cc2)cc1 (configuration not stated) [ACC1 BMS],-4.73
15,CN(C)CCN(C)C(=O)c1ccc(NC(=O)Nc2ccc(-c3nc(N4CCOCC4)c4ccn(CC(F)(F)F)c4n3)cc2)cc1,-5.18
16,CCCCCCCCCCCCCC(=O)N[C@H](CO)[C@H](O)c1ccc([N+](=O)[O-])cc1 [D-NMAPPD],-4.93
17,C=CCn1c(=O)c2cnc(Nc3ccc(N4CCN(C)CC4)cc3)nc2n1-c1cccc(C(C)(C)O)n1 [MK-1775],-6.43
18,COC1=CC=CC=C1C2=CC=CC(=C2)C/3=C(O)/C4=CC(=C(Cl)C=C4NC3=O)C#N [FASN MRK],-4.37
19,CN1\N=C(N)/C2=C[N]([C@@H]3O[C@H](CO[P](O)(O)=O)[C@@H](O)[C@H]3O)C4=C2C1=NC=N4 [Triciribine phosphate],-6.53
20,Nc1nc(N)c2nc(-c3cccc(O)c3)c(-c3cccc(O)c3)nc2n1,-5.18
21,CCc1cncnc1N1CCN(Cc2nc3cc(C(F)(F)F)ccc3[nH]2)CC1,-5.13
